Data reported in PMC7311396, “Ultra-large chemical libraries for the discovery of high-affinity peptide binders” (Nature Communications, 2020).
Non-standard residues stand in square brackets, D forms with d. Residues, ends and D or L forms follow the SMILES beside them.

Legend:
12ca5 [1] = assay: Magnetic bead affinity capture of 12ca5-binding peptides, recovery by nLC-MS; parameters: species or system mouse
Method: Identification of binders from high-diversity libraries would necessitate their efficient recovery at high dilution. To assess the utility of magnetic bead-based affinity capture for this purpose, we investigated the recovery of a number of peptide binders with varying affinity for anti-HA mAb clone 12ca5 (12ca5), which recognizes the linear motif DXXDYA (Supplementary Figs. 1–6; Supplementary Table 1). In these experiments, streptavidin-coated magnetic beads (1 mg; 0.13 nmol IgG binding capacity) functionalized with biotinylated 12ca5 were incubated with mixtures of 12ca5-binding peptides (either 1 nM/peptide, 100 pM/peptide, or 10 pM/peptide; 1 mL scale). The magnetic beads were isolated, washed with buffer, and treated with chemical denaturant to elute bound peptides. A portion of this eluate (~2%) was subjected to nLC-MS analysis, and recovery was quantified using normalized MS response. To calculate recovery, a separate dose-response curve was generated for each peptide, since their MS responses varied by ~5-fold (Supplementary Fig. 7). […]

anti-HA mAb clone 12ca5 = assay: Competition fluorescence polarization of HA epitope and analogues; assay type: binding; conditions: for IC50: competition FP, 100 nM 12ca5, 28 nM YPYDVPDYAK(FITC)-CONH2, 1 mg/mL BSA, 0.02% Tween 20, 1x PBS, RT, read after 1 h; for Kd: from competition FP, 100 nM 12ca5, 28 nM FITC tracer
Method: Competition fluorescence polarization of HA epitope and analogues:
Solutions of unlabeled peptides (~1 mg/mL each; Supplementary Table 1) in 1x PBS was prepared in the presence of 100 nM 12ca5, 1 mg/mL BSA, 0.02% Tween 20 (120 μL). Fluorescent competitor was added (YPYDVPDYAK(FITC)α-CONH2; 28 nM).
The resulting solution was diluted serially (20 μL) into 100 nM 12ca5, 28 nM […]
YPYDVPDYAK(FITC)α-CONH2, 1 mg/mL BSA, 0.02% Tween 20 in 1x PBS (80 μL; […]
5-fold dilutions). The resulting solutions were transferred to a 96 well plate (Greiner Bio- […]
(RT), and read after 1 h on a Tecan Infinite M1000 plate reader (470 nm excitation; 517 nm detection; 5 nm bandwidth). The concentration of fluorescent […] was determined based on absorbance at 490 nm, using ε = 76,900 M-1cm-1.
Competition fluorescence polarization of HA epitope Ala scan mutants:
Competition fluorescence polarization experiments were carried out as described in Competition fluorescence polarization of HA epitope and analogues.

12ca5 [2] = assay: Affinity selection from 10^8-member library against 12ca5 with exogenous competitor; conditions: 10 pM/member, 0.13 nmol 12ca5

**Q.** Which recovery (12ca5 [1]; 1 mg 12ca5-functionalized beads, 1 mL, 1 nM to 10 pM/peptide, 1 h 4 °C, 3 PBS washes (~6 min), normalized MS response) does the source give for `C[C@H](NC(=O)[C@H](Cc1ccc(O)cc1)NC(=O)[C@H](CC(=O)O)NC(=O)[C@H](CCC(=O)O)NC(=O)[C@H](Cc1ccc(O)cc1)NC(=O)[C@H](CC(=O)O)NC(=O)[C@@H](N)Cc1ccccc1)C(=O)N[C@@H](CCC(=O)O)C(=O)N[C@@H](Cc1c[nH]c2ccccc12)C(=O)N[C@@H](CCCCN)C(N)=O` [FDYEDYAEWK] (H-FDYEDYAEWK-NH2) here?
**A.** Its recovery is 33%.

**Q.** What about the “recovery expected based on measured dissociation rate” value (12ca5 [1]; based on koff = 3.0 × 10^−3 s^−1 and total wash time of ~6 min) of the same molecule?
**A.** Its value is 34%.

**Q.** And the IC50 (anti-HA mAb clone 12ca5)?
**A.** The IC50 was 590 ± 190 nM.

**Q.** What about the Kd (anti-HA mAb clone 12ca5) of the same molecule?
**A.** Its Kd is 25 ± 13 nM.

**Q.** Which IC50 (anti-HA mAb clone 12ca5) does the source give for `NCC(=O)N[C@H](Cc1ccc(O)cc1)C(=O)N1CCC[C@@H]1C(=O)N[C@H](Cc1ccc(O)cc1)C(=O)N[C@H](CCC(=O)O)C(=O)N[C@H](Cc1ccc(O)cc1)C(=O)N[C@H](CC(=O)O)C(=O)N[C@H](Cc1c[nH]c2ccccc12)C(=O)N[C@H](CCC(=O)O)C(N)=O` [Gypyeydwe, reference compound] (H-G[dY][dP][dY][dE][dY][dD][dW][dE]-NH2) here?
**A.** Its IC50 is 62000 ± 8000 nM.

**Q.** What about the Kd (anti-HA mAb clone 12ca5) of the same molecule?
**A.** The Kd was 3000 nM.

**Q.** What about the “competitor concentration required to attenuate the recovery of DXXDY(A/S) peptides” value (12ca5 [2]) of the same molecule?
**A.** Its value is 100 µM.
